In US20080227813A1, “Pharmaceutical compositions and methods for treating diseases associated with neurodegeneration” (priority 2006, published 2008):
Like-named read-outs stand apart in the source and are kept apart here.

Legend:
[1] = dog, in vivo, po
Procedure: Four animals of both sexes/groups were used, except the control and high dose group where the groups were completed with 2 recovery animals in both sexes.
The check of mortality and the clinical observations were performed twice daily, the weighing of non-consumed food was done daily. The body weight of the animals was measured once a week. The urine, hematological, clinical chemical and ECG investigations were performed before the first treatment day and at termination of the treatment and at the end of the recovery period. The blood samples for kinetic analysis were taken in the 2nd and in the 104th, 110th and 111th treatment days. The opthalmoscopic examinations were performed prior to the treatment, at termination of the treatment and at the end of the recovery period. Terminally gross necropsy and histopathological examinations were performed in all animals.

[2] = Relative animal toxicokinetic and human pharmacokinetic drug exposures; format: in vivo; settings: maximum human drug exposure (100 mg tid) = 1.0
[3] = system: CRL:(WI)BR rats; assay: Acute oral toxicity in rats; format: in vivo; settings: rat
Procedure: All animal toxicology studies were performed at Toxicological Research Centre (Veszprém, Hungary) using protocols compliant with OECD guidelines and Principles of Good Laboratory Practice. Following is a summary of the studies conducted.
Acute oral toxicity studies were performed in rats (CRL(WI:)BR) and in mice (CRL: NMRI BR). A control and five dose groups were involved in the rat study at dose levels of 2000 mg/kg, 2600 mg/kg, 3400 mg/kg, 4400 mg/kg and 5700 mg/kg (equal to 1241 mg/kg, 1613 mg/kg, […], 2729 mg/kg and 3535 mg/kg free base, n=5 animals/sex/group).

[4] = system: CRL:NMRI BR mice; assay: Acute intravenous toxicity in mice; format: in vivo; settings: mouse
Procedure: A control and five dose groups were involved in the mouse study, at dose levels of 200 mg/kg, 250 mg/kg, 300 mg/kg, 360 mg/kg and 450 mg/kg (equal to […], 155 mg/kg, 186 mg/kg, 223 mg/kg and 279 mg/kg free base, n=5 animals/sex/group).

[5] = system: CRL(:WI)BR rats; assay: 28-day repeated dose oral toxicity study in rats; format: in vivo, rat; settings: for No observed adverse effect level (NOAEL): rat male and female, 28-day oral
Procedure: To assess recovery post treatment, an additional 5 males and females were included in both the control and highest dosage groups. Treatment was carried out by gavage once daily. Control animals were treated with physiologic saline in the same way.
Pre-treatment: general condition and behavior activity patterns were observed. Also in a subgroup of 5 male and 5 female animals, hematological and clinical chemistry tests were performed.
During the treatment period and following a two-week recovery period the clinical observations were made daily. At weekly intervals body weight and food consumption were measured.
At the end of the treatment, hematological, clinical chemistry evaluation and gross necropsy with organ weight assessment were conducted. […] In addition, the liver and kidneys and the organs showing macroscopic changes were examined microscopically in the low and middle dose groups, too.

[6] = system: rats; assay: 180-day repeated dose oral toxicity study in rats
Procedure: A six-month repeated dose oral toxicity study of Compound I was performed in rats involving a control (physiologic saline, n=32/sex) and dose groups of 200 mg/kg/day, 400 mg/kg/day and 900 mg/kg/day (equal to 124 mg/kg, 248 mg/kg and 558 mg/kg free base, n=20/sex, 20/sex and 32/sex, respectively). The test item was dissolved in distilled water. Treatment was carried out by a stomach tube daily. The application volume was adjusted weekly according to the animal's body weight changes.
Clinical observations were made once daily. Body weight and food consumption were measured and evaluated weekly. Urine collection, blood sampling for hematological, clinical chemistry evaluation and gross necropsy were conducted at the end of the treatment period. Full histopathologic examination was performed on the preserved organs and tissues of the vehicle control and high dose groups. In addition, the liver, kidneys, testes, epididymis and organs showing macroscopic alterations were examined microscopically in the low and medium doses.
Compound I content (pre-dose concentration) was determined in serum on days 1, 49, 111 and 173. The serum samples were analyzed by liquid/liquid extraction, and ion-pair HPLC. Twelve animals per sex of the controls and high dose groups were kept alive for a 28-day post-treatment recovery period. They were processed in the same way as animals at the termination of treatment.

[7] = system: healthy young male subjects; settings: human, single oral doses 50-800 mg
Procedure: The study was conducted in 12 volunteers, in accordance with the Helsinski Declaration, European Good Clinical Practices and Huriet law. The volunteers were divided into two groups (n=6 in each group).
The dose was administered orally, under medical supervision, after a 10 h abstinence from food. No concomitant medication was allowed within the period of time from the screening examination to 24 h after the last administration.

[8] = system: dog liver cells
[9] = system: healthy young male subjects; assay: Multiple dose safety study in male healthy volunteers; settings: human, 50 or 100 mg tid, 10 days
Procedure: The study was designed as a randomized, double-blind and single-center study, without therapeutic benefit for the subjects.
The study was performed in 18 healthy subjects divided into 2 groups of 9 subjects (groups A and B). Subjects of group A received 50 mg Compound I as a single dose on the morning of day 1; then 50 mg Compound I tid on days 2 to 9; and a single 50 mg dose on the morning of day 10.

[O-][n+]1cccc(/C(Cl)=N/OC[C@H](O)CN2CCCCC2)c1 [Compound I, N-[2-hydroxy-3-(1-piperidinyl)-propoxy]-pyridine-1-oxide-3-carboximidoyl chloride]
AUCtot ([1]; 50 mg/kg/day): 40220 ng·h/mL
Cmax ([1]; 50 mg/kg/day): 10840 ng/mL
MRT ([1]; 50 mg/kg/day): 3.78 h
Tmax ([1]; 50 mg/kg/day): 1.78 h
clearance ([1]; 50 mg/kg/day): 13 mL/min/kg
t½ ([1]; 50 mg/kg/day): 1.89 h
AUCtot ([1]; 80 mg/kg/day): 87010 ng·h/mL
Cmax ([1]; 80 mg/kg/day): 22000 ng/mL
MRT ([1]; 80 mg/kg/day): 4.04 h
Tmax ([1]; 80 mg/kg/day): 1.88 h
clearance ([1]; 80 mg/kg/day): 9.5 mL/min/kg
t½ ([1]; 80 mg/kg/day): 2.10 h
AUCtot ([1]; 160 mg/kg/day): 166390 ng·h/mL
Cmax ([1]; 160 mg/kg/day): 37950 ng/mL
MRT ([1]; 160 mg/kg/day): 4.57 h
Tmax ([1]; 160 mg/kg/day): 1.94 h
clearance ([1]; 160 mg/kg/day): 10.3 mL/min/kg
t½ ([1]; 160 mg/kg/day): 2.44 h
Fold-above minimum effective mouse exposure ([2]; AUC): 12
Fold-above minimum effective rat exposure ([2]; AUC): 5.9
Fold-below dog drug exposure at NOAEL ([2]; AUC): 17
Fold-below rat drug exposure at NOAEL ([2]; AUC): 6.0
Fold-above minimum effective mouse exposure ([2]; Cmax): 2.8
Fold-above minimum effective rat exposure ([2]; Cmax): 1.4
Fold-below dog drug exposure at NOAEL ([2]; Cmax): 5
Fold-below rat drug exposure at NOAEL ([2]; Cmax): 28
Oral LD50 value ([3]; female, by base): 1977 - by base mg/kg
Oral LD50 value ([3]; female, by citrate): 3188 - by citrate mg/kg
Oral LD50 value ([3]; male, by base): 1754 (1425-2146) - by base mg/kg
Oral LD50 value ([3]; male, by citrate): 2828 (2297-3460) - by citrate mg/kg
Intravenous LD50 value ([4]; female, by base): 158 - by base mg/kg
Intravenous LD50 value ([4]; female, by citrate): 254 - by citrate mg/kg
Intravenous LD50 value ([4]; male, by base): 190 (164-223) by base mg/kg
Intravenous LD50 value ([4]; male, by citrate): 307 (265-359) by citrate mg/kg
No observed adverse effect level (NOAEL) ([5]; by base): 233 mg/kg/day
No observed adverse effect level (NOAEL) ([5]; by citrate): 375 mg/kg/day
mortality ([5]; rat, 375, 750, 1500 mg/kg/day oral, 28 days): No deaths occurred
mortality ([6]; rat, 200, 400, 900 mg/kg/day oral, six months): No test item related mortality occurred
NOEL ([6]; rat, both sexes, six-month oral): 200 mg/kg/day
accumulation in serum ([6]; rat, in vivo, po): No accumulation
changes in safety parameters (laboratory parameters, vital signs, ECGs) [7]: No changes in any safety parameters
serious adverse events or deaths [7]: no serious adverse events or deaths
amount of metabolite No. 3 [8]: 4.9 % of the total radioactivity
amount of metabolite No. 4 [8]: 3.3 % of the total radioactivity
clearance ([8]; dog, hepatocytes): 0.055 mL/h
t1/2 ([8]; dog, hepatocytes): 12.6 h
serious adverse events or deaths [9]: no serious adverse events or deaths
